The record followed here is patent publication US20070185176A1, “Heparanase inhibitors and uses thereof” (Insight Bioharmaceuticals Ltd., priority 2004, published 2007).

The subject of assay [1] is HT1080 cells. In words: In vitro assay of invasion inhibition (BD BioCoat Angiogenesis System, matrigel). Conditions: for Invasion: HT1080 cells through matrigel, non-toxic concentration, 22 hours. Format: cell-based, human. As for the experimental part:
(c) In Vitro Assay of Invasion Inhibition by Heparanase Inhibitors
The ability of the compounds of the invention to inhibit cell invasion was determined quantitatively by the in vitro Endothelial Cell Migration assay using a BD BioCoat Angiogenesis System kit. The kit consists of a 24-multiwell insert plate (FluoroBlok, BD Falcon) containing a microporous (3.0 μm pore size) polyethylene terephthalate (PET) membrane that is capable of blocking fluorescence completely (>99% efficiency). This membrane is uniformly coated with matrigel (BD Matrigel Matrix). The uniform layer of matrigel matrix serves as a reconstituted authentic basement membrane in vitro, providing a true barrier to non-invasive cells, but allowing endothelial cells to attach to the membrane and freely migrate towards an angiogenic stimulus in the lower chamber of the insert plate. Post-labeling the cells with a fluorescent dye and measuring the fluorescence of invading cells in a fluorescent plate reader, provides quantitative measurement of cell invasion.
To cover the optimal seeding density for HT1080 cells, suspensions containing various cell concentrations were prepared: 1 ml of 3×10^5 cells/ml, 8 ml of 1.5×10^5 cells/ml and 1 ml of 0.75×10^5 cells/ml. The top chambers of each well in the inserts was filled with 0.25 ml cell-suspension, […] DMEM containing 5% fetal calf serum and an inhibitor solution. The plates were incubated for 22 hours at 37° C. and 8% CO2 atmosphere. At the end of incubation, the medium was aspirated from the upper chambers, and the insert was transferred into a second 24-well plate containing 0.5 ml/well of the fluorescent dye Calcein AM solution (4 μg/ml per plate, prepared from 50 μg Calcein AM dissolved in 20 μl DMSO and 12.5 ml of warm HBSS medium), and incubated for 90 minutes at 37° C., 8% CO2 atmosphere. Fluorescence of invaded cells was read in a fluorescence plate reader with bottom read capabilities at excitation/emission wavelength of 485/530 nm, without further manipulation. Only those labeled cells that have invaded the matrigel and passed through the pores of the PET membrane, were detected.

Assay [2] addresses T1, human recombinant heparanase (h-hpa) (Homo sapiens, UniProt Q9Y251).
T1 sequence (Q9Y251 158-543 limits assumed): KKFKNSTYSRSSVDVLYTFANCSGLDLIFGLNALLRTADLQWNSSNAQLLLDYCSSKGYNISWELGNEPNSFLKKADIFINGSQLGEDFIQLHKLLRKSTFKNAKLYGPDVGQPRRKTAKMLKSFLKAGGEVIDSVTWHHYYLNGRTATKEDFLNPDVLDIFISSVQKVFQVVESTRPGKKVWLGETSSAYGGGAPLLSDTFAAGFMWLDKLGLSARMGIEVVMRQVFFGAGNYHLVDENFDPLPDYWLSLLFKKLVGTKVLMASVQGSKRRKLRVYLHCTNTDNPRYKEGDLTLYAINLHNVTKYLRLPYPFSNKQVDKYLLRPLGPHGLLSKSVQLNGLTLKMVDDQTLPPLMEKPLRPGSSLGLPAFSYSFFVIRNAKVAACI
T1 sequence (Q9Y251 36-109 limits assumed): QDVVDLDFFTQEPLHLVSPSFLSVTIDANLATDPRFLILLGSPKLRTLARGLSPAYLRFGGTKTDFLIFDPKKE
As to the kind of experiment: In vitro dimethylmethylene blue (DMB) assay for heparanase activity.
Experimental: (a) In Vitro Dimethylmethylene Blue (DMB) Assay for Heparanase Activity
Heparin Sepharose CL-6B beads were added up to the top of the wells of a multiscreen column loader (Millipore). A 96-well multiscreen plate containing 0.65 μm hydrophilic, low protein binding, Durapore membrane (Millipore) was placed, upside down, on top of the multiscreen column loader. The column loader and the multiscreen plate were held together, turned over, and the beads were uniformly transferred from the column loader to the multiscreen plate (Millipore, MADVM 650). Double-distilled water (DDW) was then added to the beads, which were allowed to swell for one minute, and then washed (three times) with DDW under vacuum. Heparin concentration was estimated to be 10 μM/well.
To each well, phosphate-buffered saline (PBS) containing 1% bovine serum albumin (BSA; 70 μl/well) and DMB (32 mg of DMB were dissolved in 5 ml ethanol, diluted to 1 liter with formate buffer containing 4 g sodium formate and 4 ml formic acid; 120 μl/well) were added. Color was developed after 5 minutes, and the absorbance of the samples was determined using a microplate reader (Spectra Max, Molecular Devices) at 530 nm with 570 nm as reference. The absorbance correlated to heparanase activity. As a control, heparanase was added to the heparin Sepharose swollen beads in the multiscreen plate and the heparanase reaction products were filtered immediately thereafter and the absorbance of these control samples was subtracted from all other samples.
The cell extracts were centrifuged and resuspended in 20 mM phosphate citrate buffer, pH 5.4 containing 50 mM NaCl. The cells were lysed by three cycles of freezing and thawing. The cell lysates were centrifuged (10000×g for 5 min), supernatants were collected and then assayed for heparanase activity using the DMB assay.
The partially purified human recombinant heparanase or the crude cell extracts expressing either human or mouse recombinant heparanase were added for a 3-hour incubation and the reaction continued as described above. Absorbance of the developing color was measured as described above.

In the case of `CCCCCCCCCCCCCCCCCC(=O)NC1=NN(c2ccc(Oc3ccccc3)c(S(=O)(=O)O)c2)C(=O)C1` [Compound 1], in assay [1], the “inhibition of cell invasion” value is reported as “effective inhibitors of cell invasion” and the Invasion result is on record as “yes”.

A word on the IC50: it is the concentration that inhibits the measured activity by half. Take `CCCCCCCCCCCCCCCCCC(=O)NNC(=O)CC(=O)Nc1ccccc1C(=O)O` [Compound 2]: in assay [1], the “inhibition of cell invasion” value was “effective inhibitors of cell invasion” and the Invasion entry is given as “yes”. In addition, the IC50 in assay [2] turned out to be 1700 nM. In the same order, the values of `CCCCCCCCCCCCCCCCCCN(C(=O)c1ccc2ccccc2c1O)c1cc(C(=O)O)cc(C(=O)O)c1` [Compound 3] are “effective inhibitors of cell invasion”, “yes” and 380 nM.

With `CCCCCCCCCCCCCCCCCC1=Nn2c(nc3c(C(=O)O)cc(S(=O)(=O)O)cc32)C1` [Compound 4], the Invasion result in assay [1] is “yes”. Moreover, in assay [2], the 50% inhibitory concentration (IC50) was found to be 1200 nM. In the same order, the values of `CCCCCCCCCCCCCCCCCC(=O)NC1=NN(c2ccc(Oc3ccccc3)c(S(=O)(=O)O)c2)C(=O)C1/N=N/c1cc(C(=O)O)c(O)cc1Cl` (centres unmarked) [Compound 9] are “yes” and 160 nM. In the same order, the values of `CCCCCCCCCCCCCCCCCC1=NN(c2ccc(Oc3ccccc3)c(S(=O)(=O)O)c2)C(=O)C1/N=N/c1ccc(N(CC)CC)cc1` (centres unmarked) [Compound 10] are “yes” and 260 nM.

In the case of `CCCCCCCCCCCCCCCCCC1=NN(c2ccc(Oc3ccccc3)c(S(=O)(=O)O)c2)C(=O)C1/N=N/c1c(C)n[nH]c1C` (centres unmarked) [Compound 12], the Invasion result in assay [1] is on record as “yes”. Besides, the IC50 in assay [2] was 240 nM. In the same order, the values of `CCCCCCCCCCCCCCCC1=NN(c2ccc(S(=O)(=O)O)cc2)C(=O)C1Br` (centres unmarked) [Compound 13] are “yes” and 1000 nM.

With `CCCCCCCCCCCCCCCCCC1=NN(c2ccc(Oc3ccccc3)c(S(=O)(=O)O)c2)C(=O)C1/N=N/c1ccc(O)c(OC)c1` (centres unmarked) [Compound 15], the Invasion result in assay [1] was “yes”. Moreover, the IC50 in assay [2] is 250 nM.

Regarding `CCCCCCCCCCCCCCCCCC1=NN(c2ccc(Oc3ccccc3)c(S(=O)(=O)O)c2)C(=O)C1/N=N/c1cccc(O)c1` (centres unmarked) [Compound 16], in assay [1], the Invasion result is “yes”. Besides, the half-inhibitory concentration (IC50) in assay [2] was found to be 220 nM. `CCCCCCCCC(CCCCCCCC)C1=NN(c2cccc(S(=O)(=O)O)c2)C(=O)C1` [Compound 17]: in assay [1], the Invasion entry is recorded as “yes”. The 50% inhibitory concentration (IC50) in assay [2] came to 2700 nM. In the same order, the values of `CCCCCCCCCCCCCCCCCC(=O)NC1=NN(c2ccc(Oc3ccccc3)c(S(=O)(=O)O)c2)C(=O)C1/N=N/c1cc(C(=O)OC)ccc1O` (centres unmarked) [Compound 18] are “yes” and 290 nM. In the same order, the values of `CCCCCCCCCCCCCCCCCC1=NN(c2ccc(Oc3ccccc3)cc2S(=O)(=O)O)C(=O)C1/N=N/c1ccc(OC)cc1` (centres unmarked) [Compound 19] are “yes” and 320 nM.

Take `CCCCCCCCCCCCCCCCCC(=O)NC1=NN(c2ccc(Oc3ccccc3)c(S(=O)(=O)O)c2)C(=O)C1/N=N/c1c(C)nn(C)c1C` (centres unmarked) [Compound 22]: in assay [1], the Invasion entry was “yes”. Besides, in assay [2], the half-maximal inhibitory concentration (IC50) worked out at 650 nM. On to `CCCCCCCCCCCCCCCCCC1=NN(c2ccc(Oc3ccc(OCC)cc3)c(S(=O)(=O)O)c2)C(=O)C1` [Compound 24], for which the Invasion result in assay [1] was “yes”. Moreover, in assay [2], the IC50 amounted to 630 nM. `CCCCCCCCCCCCCCCCCCN(C)c1ccc(S(=O)(=O)O)cc1NC(=O)c1cc(O)c2ccccc2c1` [Compound 77]: in assay [2], the IC50 is 340 nM.

Turning to `CCCCCCCCCCCCCCCC(=O)OC[C@H](O)C1OC(=O)C(O)=C1O` (some centres unmarked) [Compound 78], the IC50 in assay [2] turned out to be 9000 nM. The same measure, in the same setting: to `CCCCCCCCCCCCCCCCCC[n+]1c2cc(N(C)C)ccc2cc2ccc(N(C)C)cc21` [Compound 79] belongs 1600 nM; to `CCCCCCCCCCCCCCCC[n+]1ccc(C=NO)cc1` [Compound 80], 17000 nM.

As to `O=C(O)CCCCCCCCCCN1C(=O)/C(=C/c2cccc(Br)c2)SC1=S` [Compound 81], the IC50 in assay [2] stood at 18000 nM. Still for that read-out and setting: to `CCN1C(=O)/C(=C2\SC(=S)N(CCCCCCCCCCC(=O)O)C2=O)c2ccccc21` [Compound 82] belongs 17000 nM; to `CCCCCCCCCCCCCC(=O)NC1=NN(c2ccc(Oc3ccccc3)c(S(=O)(=O)O)c2)C(=O)C1` [Compound 83], 400 nM; to `CCCCCCCCCCCCCCC(=O)NC1=NN(c2ccc(Oc3ccccc3)c(S(=O)(=O)O)c2)C(=O)C1` [Compound 84], 730 nM. As for `CCCCCCCCCCC/C=C\CCCCC(=O)NC1=NN(c2ccc(Oc3ccccc3)c(S(=O)(=O)O)c2)C(=O)C1` [Compound 85], the IC50 in assay [2] amounted to 400 nM. `CCCCCCCCCCC/C=C\CCCCC(=O)Nc1cc(C(=O)O)ccc1Oc1cc(C(=O)O)cc(C(=O)O)c1` [Compound 86]: the IC50 in assay [2] came to 2000 nM. With `CCCCCCCCCCCC1OC1CCCCC(=O)Nc1cc(C(=O)O)ccc1Oc1cc(C(=O)O)cc(C(=O)O)c1` (centres unmarked) [Compound 87], the IC50 in assay [2] is 400 nM. On to `CCCCCCCCCCCCCCCCOc1ccc(S(=O)(=O)O)cc1C(=O)O` [Compound 88], for which the IC50 in assay [2] worked out at 4400 nM. On to `CCCCCCCCCCCCCCCCS(=O)(=O)c1ccc(S(=O)(=O)O)cc1C(=O)O` [Compound 89], for which the IC50 in assay [2] amounted to 5500 nM.

Take `CCCCCCCCCCCCCCCCCC/C=C/c1cc(C(=O)O)c2oc3c(C(=O)O)cccc3c2c1` [Compound 90]: in assay [2], the IC50 is 8500 nM.

Turning to `CCCCCCCCCCCCCCCCCCNCC(O)Cn1c2ccc(Br)cc2c2cc(Br)ccc21` (centres unmarked) [Compound 91], the IC50 in assay [2] came to 15000 nM.

As for `CCCCCCCCCCCC1SC1CCCCC(=O)Nc1cc(C(=O)O)ccc1Oc1cc(C(=O)O)cc(C(=O)O)c1` (centres unmarked) [Compound 92], the IC50 in assay [2] amounted to 500 nM. The same measure, in the same setting: to `CCCCCCCCCCCC(Cl)C(O)CCCCC(=O)Nc1cc(C(=O)O)ccc1Oc1cc(C(=O)O)cc(C(=O)O)c1` (centres unmarked) [Compound 93] belongs 9150 nM; to `C=CCCCCCCCCC(=O)CCCCCC(=O)Nc1cc(C(=O)O)ccc1Oc1cc(C(=O)O)cc(C(=O)O)c1` [Compound 94], 18000 nM; to `CCCCCCCCCCCC1OC1CCCCC(=O)Nc1cc(C(=O)O)ccc1Oc1cc(C(N)=O)cc(C(=O)O)c1` (centres unmarked) [Compound 95], 1000 nM. The same measure, in the same setting: as for `CCCCCCCCCCCC1OC1CCCCC(=O)Nc1cc(C(=O)O)ccc1Oc1cc(C(N)=O)cc(C(N)=O)c1` (centres unmarked) [Compound 96], the figure is 1600 nM; as for `CCCCCCCCCCCCC/C=C/CC(O)(C(=O)O)C(F)(F)F` (centres unmarked) [Compound 97], 6000 nM; as for `CCCCCCCCCCCCC/C=C/CC(O)(C(=O)Cc1cc(C(=O)O)ccc1Oc1cc(C(=O)O)cc(C(=O)O)c1)C(F)(F)F` (centres unmarked) [Compound 98], 1500 nM. The same measure, in the same setting: as for `CCCCCCCCCCCC1OC1CCCCC(=O)On1nnc2ccccc2c1=O` (centres unmarked) [Compound 99], the figure is 16000 nM; as for `CCCCCCCCCCCC1OC1CCCCC(=O)NC1=NN(c2ccc(Oc3ccccc3)c(S(=O)(=O)O)c2)C(=O)C1` (centres unmarked) [Compound 100], 270 nM; as for `CCCCCCCCCCCCCCCCCCn1c(-c2ccccc2)nc2cc(S(=O)(=O)O)ccc21` [Compound 102], 630 nM. For the compound `CCCCCCCCCCCCCCCCCCNC(=O)C1CC(=O)N(c2ccc(Oc3ccc(S(=O)(=O)O)cc3)cc2)C1` (centres unmarked) [Compound 103], the IC50 in assay [2] stood at 7700 nM. Same read-out and setting: to `CCCCCCCCCCCCCCCCCCNC(=O)C1CC(=O)N(c2ccc(Oc3ccc(S(=O)(=O)O)cc3)c(S(=O)(=O)O)c2)C1` (centres unmarked) [Compound 104] belongs 470 nM; to `CCCCCCCCCCCCCCCCCCNC(=O)C1CC(=O)N(c2ccc(Oc3ccc(Br)cc3)c(S(=O)(=O)O)c2)C1` (centres unmarked) [Compound 105], 860 nM; to `CCCCCCCCCCCCCCCCCCNC(=O)C1CC(=O)N(c2ccc(Oc3ccc(C(N)=O)cc3)c(S(=O)(=O)O)c2)C1` (centres unmarked) [Compound 106, 2-(4-amido-phenoxy)-5-(4-octadecyl-carbamoyl-2-oxo-pyrrolidin-1-yl)-benzene sulfonic acid], 300 nM. The same measure, in the same setting: as for `CCCCCCCCCCCCCCCCCCNC(=O)C1CC(=O)N(c2ccc(Oc3ccc(C(=O)O)cc3)c(S(=O)(=O)O)c2)C1` (centres unmarked) [Compound 107, 2-(4-carboxy-phenoxy)-5-(4-octadecyl-carbamoyl-2-oxo-pyrrolidin-1-yl)-benzene sulfonic acid], the figure is 330 nM.
